Data: patent publication US20260140118A1, “COMBINATION DRUG” (CHUGAI SEIYAKU KABUSHIKI KAISHA, priority 2022, published 2026)
Where two headings read alike, the source gives them in different places.

What was measured:
[1] = tested on: DTP cells; test: Cell growth suppression test on DTP cells; format: cell-based, human
Protocol: (§1) Next, for these nine compounds, a cell growth suppression test was conducted, and the ratio of IC50 of DTP cells with respect to the parental line was calculated.

[2] = tested on: NCI-H2228 cells (parental cells); test: Cell growth suppression test on NCI-H2228 parental cells; format: cell-based, human; conditions: for Sensitivity of NCI-H2228 cells: parental cells; for IC50: Table 3, nine screening hits
Protocol: as §1

[3] = tested on: Regrown cells; test: Cell growth suppression test on regrown cells; format: cell-based, human; conditions: DTP cells cultured in alectinib-free medium for 37 days; for IC50: Homo sapiens, Table 4
[4] = tested on: FGFR1 knockout cells; test: Cell growth test on FGFR1 knockout cells (CRISPR/Cas9); format: cell-based, human; conditions: two clones
From the text: (§2) Using NEPA21 Electroporation, crRNA and Cas9 protein (Nippon Gene Co., Ltd.) targeting FGFR1 or FGF2 (Fasmac) were introduced into cells, two single clones were isolated from each clone cell with Smart Aliquotor (NT Science, Aichi, Japan), and it was confirmed by the Western blotting analysis that FGFR1 or FGF2 knockout cells lost FGFR1 or FGF2 protein (FIG. 5C).

[5] = tested on: FGF2 knockout cells; test: Cell growth test on FGF2 knockout cells (CRISPR/Cas9); format: cell-based, human; conditions: two clones
From the text: as §2

[6] = tested on: alectinib-resistant NCI-H2228 cells; test: Cell growth test on alectinib-resistant NCI-H2228 cells; format: cell-based; conditions: Homo sapiens
[7] = tested on: FGFR1 or FGF2 knockout cells; test: Caspase-Glo 3/7 apoptosis assay and Western blotting in FGFR1 or FGF2 knockout cells; format: cell-based, human
Protocol: as §2
The FGFR1 or FGF2 knockout cells obtained as described above were seeded on a 384-well plate, and on the following day, a drug was added at an indicated concentration, followed by culturing for an indicated time. The caspase 3 and 7 activity to signal induction of apoptosis in cells was measured using Caspase-Glo 3/7 Assay (Promega) in accordance with the protocol from the manufacturer. […] Each point represents an average+standard deviation from three experiments.

[8] = tested on: SNU-2535 cells excessively expressing FGFR1 and FGF2; test: Cell growth and Western blotting in SNU-2535 cells excessively expressing FGFR1 and FGF2; format: cell-based, human; conditions: as compared to control cells or cells excessively expressing FGF2
From the text: For further confirming that both FGFR1 and FGF2 are necessary for cell survival in ALK inhibitor treatment, FGFR1 and FGF2 were excessively expressed in SNU2535 cells of ALK fusion gene-positive non-small cell lung cancer (NSCLC) (FIG. 7B).
FGFR1, FGF2, or a human coding sequence (CDS) as a control was synthesized, and cloned downstream of an EF1A promoter in a lentivirus vector with VectorBuilder (Chicago, Illinois, USA), and SNU-2535 cells were infected with a lentivirus vector. After 1 day, the culture solution was cultured in a puromycin-containing medium for 4 days, cells excessively expressing FGFR1 and FGF2 were selected, and clones were isolated with Smart Aliquotor. The expression of FGFR1 or FGF2 protein was confirmed by the Western blotting analysis.

[9] = tested on: NCI-H2228 cells (parental cells); test: Cell growth suppression test on NCI-H2228 parental cells; format: cell-based; conditions: Homo sapiens
[10] = tested on: DTP cells; test: Screening test of anticancer agent library (3114 compounds) for growth suppressive action on DTP cells; format: cell-based, human; conditions: DTP cells from NCI-H2228 treated with alectinib for 13 days
[11] = tested on: DTP cells; conditions: Western blotting; STAT3, AKT, ERK, S6, FGFR1
Protocol: (§3) The cells were seeded on a 6-well plate, and on the following day, a drug was added, followed by culturing for a certain time. A Sally Sue or Jess capillary electrophoresis-based protein analysis system (ProteinSimple, Santa Clara, CA, USA) was charged with protein lysates in equal amounts for each of Western blotting methods. As the antibody, antibodies to ALK, phospho-ALK, FGFR1, FGFR2, FGFR3, FGFR4, ERK, phospho-ERK, AKT, phospho-AKT, EGFR, phospho-EGFR, MET, β-actin, phospho-MET, HER2, CD44, BIM, VIM, CDH1, S6, pS6 and STAT3 (Cell Signaling Technology, Danvers, MA, USA), Cleaved PARP, phospho-HER2, FGF2 and FGF12 (Abcam) were used.

[12] = tested on: NCI-H2228 cells (parental cells); conditions: Western blotting, STAT3, AKT, ERK, S6
Protocol: as §3

[13] = tested on: NCI-H2228 tumor; test: NCI-H2228 subcutaneous xenograft in nude mice; format: in vivo, mouse; conditions: oral administration for 11 days
Protocol: From The Jackson Laboratory Japan, Inc. (Yokohama, Japan), 4 to 5-week-old male BALB/c-nu/nu mice (CAnN Cg-Foxn1/Cr1Cr1j nu/nu) were purchased. Cells were subcutaneously inoculated to the right flank region at 5×10^6 per mouse. The tumor volume and the body weight were measured twice weekly, where the tumor volume was estimated as below. Tumor volume=ab^2/2 (a and b indicate the length and the width of the tumor, respectively. After the establishment of the tumor, the mice were assigned randomly to a solvent administration group, drug administration groups, or a combined administration group identical in dose and schedule to the group receiving each single drug, followed by oral administration for 11 days in a row.

[14] = Homo sapiens, NCI-H2228, NCI-H2228
[15] = NCI-H2228, 192 h, Example 4, treated for 8 days, single or in combination, read-out: IC50, NCI-H2228 Parental cells
[16] = NCI-H2228, FIG. 5D, 5E, read-out: IC50 value, parental cells (comparison to knockout cells)
[17] = Table 4, NCI-H2228, read-out: IC50, Parental cells
[18] = Homo sapiens, Table 3, nine screening hits
[19] = NCI-H2228, Example 5, read-out: IC50 value, NCI-H2228 cells, FGFR inhibitor alone

With `CCc1cc2c(cc1N1CCC(N3CCOCC3)CC1)C(C)(C)c1[nH]c3cc(C#N)ccc3c1C2=O.Cl` [Alectinib, 9-ethyl-6,6-dimethyl-8-[4-(morpholin-4-yl)-piperidin-1-yl]-11-oxo-6,11-dihydro-5H-benzo[b]carbazole-3-carbonitrile-hydrochloride] the “Sensitivity of DTP cells” value [1] was “did not exhibit sensitivity”, the IC50 ([1]; Homo sapiens, NCI-H2228, 312 h) was greater than 1000 nM and the “Sensitivity of NCI-H2228 cells” value [2] was “exhibited sensitivity”. For the same compound, the “Sensitivity of regrown cells as compared to DTP cells” value [3] was “recovered sensitivity”, the IC50 [3] was 480 nM and the IC50 [4, 14] was 5.4 nM. The IC50 ([4]; NCI-H2228) was 7.3 nM, the IC50 [5, 14] was 5.6 nM and the IC50 ([5]; NCI-H2228) was 6.1 nM. For the same compound, the IC50 [6] was greater than 1000 nM, the “Induction of apoptosis (caspase 3 and 7 activity) in FGFR1 or FGF2 knockout cells as compared to parental cells” value [7] was “enhanced” and the “Action of inhibiting ERK in FGFR1 or FGF2 knockout cells as compared to parental cells” value ([7]; Western blotting) was “enhanced”. For the same compound, the “Cell growth suppressive effect in cells excessively expressing FGFR1 and FGF2” value [8] was “decreased”, the “Suppressive effect on the amount of phosphorylation of ERK in cells excessively expressing FGFR1 and FGF2” value [8] was “decreased” and the IC50 [9, 15] was 220 nM. It also gave an IC50 [9, 16] of 220 nM and an IC50 [9, 17] of 220 nM.
In the case of `C[C@@H]1C[C@H]2[C@@H]3CCC4=CC(=O)C=C[C@]4(C)[C@@]3(F)[C@@H](O)C[C@]2(C)[C@@]1(O)C(=O)CO` [Dexamethasone], the IC50 [1, 18] is reported as 1320 nM and the IC50 ([2]; Homo sapiens, NCI-H2228) is reported as greater than 10000 nM.
For `c1cc(Nc2cc(C3CC3)[nH]n2)nc(Nc2ccc3nc[nH]c3c2)n1` [APY29], the “Anti-proliferative effect on DTP cells” value [10] was 0.68, the “IC50 Ratio of parental to DTP cells” value ([1]; Table 3) was 3.8 and the IC50 ([1]; Table 3, nine screening hits) was 445 nM. It also gave an IC50 [2] of 1700 nM.
With `C[C@]12C=CC(=O)C=C1CC[C@H]1[C@@H]3C[C@@H](O)[C@](O)(C(=O)CO)[C@@]3(C)C[C@H](O)[C@@]12F` [Triamcinolone] the IC50 [1, 18] was 1360 nM and the IC50 ([2]; Homo sapiens, NCI-H2228) was greater than 10000 nM.
With `Cc1cc([C@@H](C)Nc2ccccc2C(=O)O)c2nc(N3CCOCC3)cc(=O)n2c1` [AZD6482] the IC50 [1, 18] was 4570 nM, the “IC50 Ratio of parental to DTP cells” value ([1]; Table 3) was 2.2 and the IC50 ([2]; Homo sapiens, NCI-H2228) was 9870 nM.
For `C=CC(=O)N1CCC(Oc2cc3c(Nc4ccc(Cl)c(Cl)c4F)ncnc3cc2OC)CC1` [Poziotinib], the IC50 [1, 18] was 1390 nM, the “IC50 Ratio of parental to DTP cells” value ([1]; Table 3) was 2.8 and the IC50 ([2]; Homo sapiens, NCI-H2228) was 3920 nM.
In the case of `COc1cc([C@@H]2c3cc4c(cc3[C@H](O)[C@H]3COC(=O)[C@@H]23)OCO4)cc(OC)c1OC` [PPP, picropodophyllin], the “Cell growth suppressive effects in parental cells and DTP cells compared” value ([1]; FIGS. 1A and B) is reported as “substantially equivalent”, the IC50 ([1]; Homo sapiens, NCI-H2228, 312 h) is reported as 182 nM and the IC50 [9, 17] is reported as 152 nM.
With `CN(C)C/C=C/C(=O)Nc1ccc(C(=O)N2CCC[C@@H](Nc3ncc(Cl)c(-c4c[nH]c5ccccc45)n3)C2)cc1` [THZ531] the IC50 [1, 18] was 154 nM, the “IC50 Ratio of parental to DTP cells” value ([1]; Table 3) was 1.8 and the IC50 ([2]; Homo sapiens, NCI-H2228) was 270 nM.
`COc1cc(CCc2cc(NC(=O)c3ccc(N4C[C@@H](C)N[C@@H](C)C4)cc3)n[nH]2)cc(OC)c1` [AZD4547, N-(5-(3,5-dimethoxyphenethyl)-1H-pyrazol-3-yl)-4-((3S, 5R)-3,5-dimethylpiperazin-1-yl)benzamide] was tested, and the IC50 [9, 19] was greater than 1000 nM.
`CN(C)C/C=C/C(=O)Nc1cc2c(Nc3ccc(F)c(Cl)c3)ncnc2cc1O[C@H]1CCOC1` [Afatinib] was tested, and the IC50 [1, 18] was 5020 nM, the “IC50 Ratio of parental to DTP cells” value ([1]; Table 3) was 1.3 and the IC50 ([2]; Homo sapiens, NCI-H2228) was 6430 nM.
With `COc1cc(OC)cc(N(CCNC(C)C)c2ccc3ncc(-c4cnn(C)c4)nc3c2)c1` [Erdafitinib, N^1-(3,5-dimethoxyphenyl)-N^2-(1-methylethyl)-N^1-[3-(1-methyl-1H-pyrazol-4-yl)-6-quinoxalinyl]-1,2-ethanediamine] the “Cell growth suppressive effect on DTP cells among the nine compounds” value ([1]; by ratio of IC50) was “most potent cell growth suppressive effect”.
`C[C@H]1Oc2cc(cnc2N)-c2c(nn(C)c2C#N)CN(C)C(=O)c2ccc(F)cc21` [Lorlatinib, (10R)-7-amino-12-fluoro-2,10,16-trimethyl-15-oxo-10,15,16,17-tetrahydro-2H-4,8-methanepyrazolo[4,3-h][2,5,11]benzoxadiazacyclotetradecine-3-carbonitrile] was tested, and the IC50 ([1]; Homo sapiens, NCI-H2228, 312 h) was greater than 1000 nM, the IC50 [4, 14] was 0.7 nM and the IC50 [5, 14] was 0.7 nM. It also gave an IC50 ([5]; NCI-H2228) of 0.9 nM, an IC50 [9, 16] greater than 1000 nM and an IC50 [9, 17] of 3.8 nM.
Compound `C[C@]12CCC(=O)C=C1CC[C@@H]1[C@@H]2[C@@H](O)C[C@@]2(C)[C@H]1CC[C@]2(O)C(=O)CO` [Hydrocortisone] has an IC50 [1, 18] of 2160 nM and an IC50 ([2]; Homo sapiens, NCI-H2228) greater than 10000 nM.
`CCN1CCN(c2ccc(Nc3cc(N(C)C(=O)Nc4c(Cl)c(OC)cc(OC)c4Cl)ncn3)cc2)CC1` [BGJ398, N′-(2,6-dichloro-3,5-dimethoxyphenyl)-N-[6-[[4-(4-ethyl-1-piperazinyl)phenyl]amino]-4-pyrimidinyl]-N-methyl-urea] was tested, and the “Sensitivity of DTP cells” value [1] was “exhibited sensitivity”, the IC50 ([1]; Homo sapiens, NCI-H2228, 312 h) was 57.8 nM and the “Sensitivity of NCI-H2228 cells” value [2] was “did not exhibit sensitivity”. For the same compound, the “Sensitivity of regrown cells as compared to DTP cells” value [3] was “lost sensitivity”, the IC50 [3] was greater than 1000 nM and the IC50 [6] was greater than 1000 nM. The “Action of inhibiting the phosphorylation of signal molecules in DTP cells” value [11] was “an action of inhibiting the phosphorylation of FGFR1 and phosphorylation of ERK”, the “Action of inhibiting the phosphorylation of ALK/FGFR1 signal molecules in parental cells” value [12] was “not observed” and the “Tumor growth suppressive effect” value [13] was “did not suppress tumor growth”. For the same compound, the IC50 [9, 15] was greater than 1000 nM, the IC50 [9, 19] was greater than 1000 nM and the IC50 [9, 17] was greater than 1000 nM.
